Measured values as given in patent US20230416262A1, “TRPML MODULATORS” (Casma Therapeutics, Inc., priority 2020, published 2023).

Key:
TFEB = TFEB nuclear translocation assay; type: cell-based; settings: Homo sapiens; HeLa wt or HeLa TRPML1 KO cells, treated for 2 hrs; ratio of nuclear to ring-region TFEB intensity
Outline: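 HeLa wild-type or TRPML1 KO cells treated 2 h with compound at 37 °C, PFA-fixed, immunostained for TFEB (Alexa 488) with Hoechst nuclei. Imaged at ×20, four fields/well. Value is ratio of nuclear to perinuclear-ring TFEB intensity, with nuclei counts.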

THP-1 cells = assay: Lamp1 lysosomal exocytosis assay; type: cell-based; settings: Homo sapiens, 55 min, 55 min incubation, top dose 20 μM
Protocol: For the Lamp1 lysosomal exocytosis assay, a human monocytic suspension cell line (THP-1) was used. Cells in culture should be used between a density of […] and 1.2e6/mL on the day of the assay. For each 96-well assay plate to be used, pellet 11e6 THP-1 cells at 330×g for 5 min in a 50 mL conical tube, aspirate media and resuspend in 22 mLs of RPMI 1640/10% FBS media for a final cell concentration of 5e5/mL. Prior to addition of cells to the assay plate, perform a 7 pt dilution curve using a top dose of compound at 2 mM and use a 3-fold serial dilution, the 8th point is DMSO only. Final top dose of compound in the assay was 20 μM. 2 μL of each serial dilution was transferred to a new 96-well v-bottom assay plate. 198 μL of cells (1e5 total cells/well) was prepared as above in each well of the assay plate and incubated at 37° C./5% CO2/95% RH for 55 min. After the 55 min incubation, cells were pelleted for 5 min at 4 C at 400×g in a tabletop centrifuge. The media was separated from the cell pellets in the plate. The pellets were washed using 200 μL ice cold buffer (PBS Ca^++/Mg^++ containing 2% final BSA and 80 μM final Dynasore). Cells were pelleted again at 400×g-5 min in a 4° C. tabletop centrifuge. Buffer was separated from cells. Each well was suspended in 75 uL Lamp1-PE antibody buffer (PBS Ca^++/Mg^++ containing 2% final BSA with 80 uM final Dynasore and 1:800 final dilution of Lamp 1-PE labeled antibody). After a 45 min antibody incubation on ice, 25 μL of sytox green was added (I drop/mL buffer), and each well was mixed and incubated for an additional 15 min on ice. After the 15 min sytox green incubation, 100 μL of ice-cold buffer (PBS Ca^++/Mg^++ containing 2% final BSA and 80 uM final Dynasore) was added and cells were pelleted for 5 min at 400×g. The buffer was removed and each sample was resuspended in 100 uL of ice-cold buffer (PBS Ca^++/Mg^++ containing 2% final BSA and 80 μM final Dynasore). FACs gating strategy: FACS analyze for sytox green (A488) and Lamp1-PE (DsRed). First gate against FSC-A/SSC-A to find non-fragmented or ‘live’ THP-1 cells. Next gate against FITC-A/FSC-A to omit sytox green positive cells. Then gate for FSC-A/FSC-H to remove any doublet cells. The last gate was a histogram for PE. The statistics for ‘count’ and ‘geometric mean fluorescence intensity’ (gWFI) for PE were repoted on the last gate.
Compounds having an activity designated as “++++” provided an exocytosis readout of ≤0.50 μM; compounds having an activity designated as “+++” provided an exocytosis readout of 0.51-1.00 μM; compounds having an activity designated as “++” provided an exocytosis readout of 1.01-5.00 μM; and compounds having an activity designated as “+” provided an exocytosis readout of ≥5.01 μM

EC50 (TFEB) [µM]	EC50 (THP-1 cells) [µM]	Structure (SMILES)
≤ 2	≤ 0.5	O=C(OCc1ccccc1)N1CCC2(CC1)CN(S(=O)(=O)c1ccc(C(F)F)cc1)c1ccccc12 [Compound I-81]
≥ 10	≥ 5.01	CN(C)S(=O)(=O)c1ccc(S(=O)(=O)N2CC3(CCN(C(=O)OCC4CC4)CC3)n3nccc32)cc1 [Compound I-145, cyclopropylmethyl 1′-[4-(dimethylsulfamoyl)benzenesulfonyl]-1′,2′-dihydrospiro[piperidine-4,3′-pyrazolo[1,5-a]imidazole]-1-carboxylate]
2.01 to 8	≥ 5.01	COc1ccc(NC(=O)N2CCC3(CC2)CN(S(=O)(=O)c2ccc(C(F)F)cc2)c2ccccc23)c(OC)c1 [Compound I-227, 1-((4-(difluoromethyl)phenyl)sulfonyl)-N-(2,4-dimethoxyphenyl)spiro[indoline-3,4′-piperidine]-1′-carboxamide]
≤ 2	≤ 0.5	O=C(OCc1ccccc1)N1CCC2(CC1)CN(S(=O)(=O)c1ccc(S(=O)(=O)C(F)F)cc1)c1ccccc12 [Compound I-186, benzyl 1-((4-((difluoromethyl)sulfonyl)phenyl)sulfonyl)spiro[indoline-3,4′-piperidine]-1′-carboxylate]
≤ 2	1.01 to 5	CN(C)S(=O)(=O)c1ccc(S(=O)(=O)N2CC3(CCN(C(=O)C(C)(C)C)CC3)c3ccccc32)cc1 [Compound I-118, 4-{[1′-(2,2-dimethylpropanoyl)-1,2-dihydrospiro[indole-3,4′-piperidin]-1-yl]sulfonyl}-N,N-dimethylbenzene-1-sulfonamide]
≤ 2	≥ 5.01	O=C(OCc1ccccc1)N1CCC2(CC1)CN(S(=O)(=O)c1ccc(C(F)F)cc1)c1c(F)cccc12 [Compound I-133, benzyl 1-((4-(difluoromethyl)phenyl)sulfonyl)-7-fluorospiro[indoline-3,4′-piperidine]-1′-carboxylate]
≥ 10	≥ 5.01	CN(C(=O)N1CC2(CCN(C(=O)OCc3ccccc3)CC2)c2ccccc21)c1ccc(C(F)F)cc1 [Compound I-248, benzyl 1-((4-(difluoromethyl)phenyl)(methyl)carbamoyl)spiro[indoline-3,4′-piperidine]-1′-carboxylate]
–	≥ 5.01	O=C(NCCn1cccn1)N1CCC2(CC1)CN(S(=O)(=O)c1ccc(C(F)F)cc1)c1ccccc12 [Compound I-208, N-(2-(1H-pyrazol-1-yl)ethyl)-1-((4-(difluoromethyl)phenyl)sulfonyl)spiro[indoline-3,4′-piperidine]-1′-carboxamide]
–	≥ 5.01	CN(C(=O)C1CCC2(CC1)CN(S(=O)(=O)c1ccc(C(F)F)cc1)c1ccccc12)c1ccnn1C (centres unmarked) [Compound I-243, 1′-((4-(difluoromethyl)phenyl)sulfonyl)-N-methyl-N-(1-methyl-1H-pyrazol-5-yl)spiro[cyclohexane-1,3′-indoline]-4-carboxamide]
–	≥ 5.01	CC(C)NC(=O)N1CCC2(CC1)CN(S(=O)(=O)c1ccc(C(F)F)cc1)c1ccccc12 [Compound I-192, 1-((4-(difluoromethyl)phenyl)sulfonyl)-N-isopropylspiro[indoline-3,4′-piperidine]-1′-carboxamide]
–	≥ 5.01	O=C(COC1CCOC1)N1CCC2(CC1)CN(S(=O)(=O)c1ccc(C(F)F)cc1)c1ccccc12 (centres unmarked) [Compound I-254, 1-(1-((4-(difluoromethyl)phenyl)sulfonyl)spiro[indoline-3,4′-piperidin]-1′-yl)-2-((tetrahydrofuran-3-yl)oxy)ethan-1-one]
–	≥ 5.01	O=C(Cc1ccccc1)N1CCC2(CC1)CN(S(=O)(=O)c1ccc(C(F)F)cc1)c1ccccc12 [Compound I-175, 1-(1-((4-(difluoromethyl)phenyl)sulfonyl)spiro[indoline-3,4′-piperidin]-1′-yl)-2-phenylethan-1-one]
–	≥ 5.01	O=C(NC1CC1)N1CCC2(CC1)CN(S(=O)(=O)c1ccc(C(F)F)cc1)c1ccccc12 [Compound I-142, N-cyclopropyl-1-[4-(difluoromethyl)benzenesulfonyl]-1,2-dihydrospiro[indole-3,4′-piperidine]-1′-carboxamide]
–	≥ 5.01	O=C(CC1CCOC1)N1CCC2(CC1)CN(S(=O)(=O)c1ccc(C(F)F)cc1)c1ccccc12 (centres unmarked) [Compound I-255, 1-(1-((4-(difluoromethyl)phenyl)sulfonyl)spiro[indoline-3,4′-piperidin]-1′-yl)-2-(tetrahydrofuran-3-yl)ethan-1-one]
–	≥ 5.01	Cn1cccc1NC(=O)N1CCC2(CC1)CN(S(=O)(=O)c1ccc(C(F)F)cc1)c1ccccc12 [Compound I-199, 1-((4-(difluoromethyl)phenyl)sulfonyl)-N-(1-methyl-1H-pyrrol-2-yl)spiro[indoline-3,4′-piperidine]-1′-carboxamide]
–	≥ 5.01	O=C(C1CCC2(CC1)CN(S(=O)(=O)c1ccc(C(F)F)cc1)c1ccccc12)N1CCC2(CCOC2)C1 (centres unmarked) [Compound I-240, (1′-((4-(difluoromethyl)phenyl)sulfonyl)spiro[cyclohexane-1,3′-indolin]-4-y1)(2-oxa-7-azaspiro[4.4]nonan-7-yl)methanone]
–	0.51 to 1	CCn1cc(COC(=O)N2CCC3(CC2)CN(S(=O)(=O)c2ccc(C(F)F)cc2)c2ccccc23)cn1 [Compound I-171]
–	≥ 5.01	O=C(CCC1CCOC1)N1CCC2(CC1)CN(S(=O)(=O)c1ccc(C(F)F)cc1)c1ccccc12 (centres unmarked) [Compound I-253, 1-(1-((4-(difluoromethyl)phenyl)sulfonyl)spiro[indoline-3,4′-piperidin]-1′-y1)-3-(tetrahydrofuran-3-yl)propan-1-one]
–	≥ 5.01	O=C(NC1CCOC1)N1CCC2(CC1)CN(S(=O)(=O)c1ccc(C(F)F)cc1)c1ccccc12 (centres unmarked) [Compound I-195, 1-((4-(difluoromethyl)phenyl)sulfonyl)-N-(tetrahydrofuran-3-yl)spiro[indoline-3,4′-piperidine]-1′-carboxamide]
–	≥ 5.01	O=C(NCC(F)(F)F)N1CCC2(CC1)CN(S(=O)(=O)c1ccc(C(F)F)cc1)c1ccccc12 [Compound I-201, 1-((4-(difluoromethyl)phenyl)sulfonyl)-N-(2,2,2-trifluoroethyl)spiro[indoline-3,4′-piperidine]-1′-carboxamide]
–	≥ 5.01	O=C(Nc1cnsc1)N1CCC2(CC1)CN(S(=O)(=O)c1ccc(C(F)F)cc1)c1ccccc12 [Compound I-202, 1-((4-(difluoromethyl)phenyl)sulfonyl)-N-(isothiazol-4-yl)spiro[indoline-3,4′-piperidine]-1′-carboxamide]
–	≤ 0.5	O=C(OCc1ccccc1)N1CCC2(CC1)CN(S(=O)(=O)c1ccc(C(F)F)cc1)c1cnccc12 [Compound I-135, benzyl 1′-[4-(difluoromethyl)benzenesulfonyl]-1′,2′-dihydrospiro[piperidine-4,3′-pyrrolo[2,3-c]pyridine]-1-carboxylate]
–	≥ 5.01	O=C(C1CCC2(CC1)CN(S(=O)(=O)c1ccc(C(F)F)cc1)c1ccccc12)N1CCOCC1 (centres unmarked) [Compound I-238, (1′-((4-(difluoromethyl)phenyl)sulfonyl)spiro[cyclohexane-1,3′-indolin]-4-yl)(morpholino)methanone]
–	≥ 5.01	O=C(NC1CCS(=O)(=O)CC1)N1CCC2(CC1)CN(S(=O)(=O)c1ccc(C(F)F)cc1)c1ccccc12 [Compound I-224, 1-((4-(difluoromethyl)phenyl)sulfonyl)-N-(1,1-dioxidotetrahydro-2H-thiopyran-4-yl)spiro[indoline-3,4′-piperidine]-1′-carboxamide]
–	≥ 5.01	O=C(NCC1CC1)C1CCC2(CC1)CN(S(=O)(=O)c1ccc(C(F)F)cc1)c1ccccc12 (centres unmarked) [Compound I-236, N-(cyclopropylmethyl)-1′-((4-(difluoromethyl)phenyl)sulfonyl)spiro[cyclohexane-1,3′-indoline]-4-carboxamide]
